Test results taken from patent US20260167620A1, “MULTIFUNCTIONAL COMPOUND CAPABLE OF DEGRADING BTK KINASE, AND COMPOSITION AND USE” (HANGZHOU HEALZEN THERAPEUTICS CO., LTD., priority 2021, published 2026).

biological target: T1, BTK (Homo sapiens, UniProt Q06187); test: BTK degradation activity test in Mino cells (Westernblot or Elisa); format: cell-based; conditions: 24-72 h incubation
T1 construct: endogenous in cells; host or cells: Mino cells
Procedure: The Mino cell line cells are 0.5˜1 million/well in 6-well plates. The compounds are diluted to different concentrations, added to the plate, and after 24-72 h of incubation, the cells are collected. After the cells were lysed, the total protein concentration in each well was determined with a BCA kit. The amount of BTK is determined using the Westernblot or Elisa method.

T1 sequence (Q06187 whole entry): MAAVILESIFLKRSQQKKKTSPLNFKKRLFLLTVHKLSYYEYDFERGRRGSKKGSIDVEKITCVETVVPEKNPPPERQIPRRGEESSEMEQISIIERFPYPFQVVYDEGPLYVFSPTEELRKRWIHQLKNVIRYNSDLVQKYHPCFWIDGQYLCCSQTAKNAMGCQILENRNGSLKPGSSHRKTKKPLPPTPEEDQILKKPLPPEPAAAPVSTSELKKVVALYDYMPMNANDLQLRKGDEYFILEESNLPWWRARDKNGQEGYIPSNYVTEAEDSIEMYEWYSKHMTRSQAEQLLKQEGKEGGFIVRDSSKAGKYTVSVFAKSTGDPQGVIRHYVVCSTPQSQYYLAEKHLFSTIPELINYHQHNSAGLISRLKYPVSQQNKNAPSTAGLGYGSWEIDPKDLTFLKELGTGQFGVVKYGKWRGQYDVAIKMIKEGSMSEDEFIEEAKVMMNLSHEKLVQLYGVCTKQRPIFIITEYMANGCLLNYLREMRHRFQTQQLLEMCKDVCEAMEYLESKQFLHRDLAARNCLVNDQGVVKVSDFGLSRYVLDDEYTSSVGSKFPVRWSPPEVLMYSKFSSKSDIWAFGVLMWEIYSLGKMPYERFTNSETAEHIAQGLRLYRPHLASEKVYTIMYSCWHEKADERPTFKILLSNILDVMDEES

DC50, < 10 nM:
NC(=O)c1cnc(N2CCCCC2)nc1Nc1ccc(C2CCN(CC3CCN(c4ccc5c(c4)C(=O)N(C4CCC(=O)NC4=O)C5=O)C3)CC2)c(F)c1 (stereo not drawn) [Compound 036, 4-((4-(1-((1-(2-(2,6-dioxopiperidin-3-yl)-1,3-dioxoisoindolin-5-yl)pyrrolidin-3-yl)methyl)piperidin-4-yl)-3-fluorophenyl)amino)-2-(piperidin-1-yl) pyrimidine-5-carboxamide]
NC(=O)c1cnc(N2CCCCC2)cc1Nc1ccc(N2CCN(CC3CCN(c4ccc5c(c4)C(=O)N(C4CCC(=O)NC4=O)C5=O)C3)CC2)c(F)c1 (stereo not drawn) [Compound 037, 4-((4-(4-((1-(2-(2,6-dioxopiperidin-3-yl)-1,3-dioxoisoindolin-5-yl)pyrrolidin-3-yl)methyl)piperazin-1-yl)-3-fluorophenyl)amino)-6-(piperidin-1-yl) nicotinamide]
NC(=O)c1cnc(N2CCCCC2)cc1Nc1ccc(C2CCN(CC3CCN(c4ccc5c(c4)C(=O)N(C4CCC(=O)NC4=O)C5=O)C3)CC2)cc1 (stereo not drawn) [Compound 038, 4-((4-(1-((1-(2-(2,6-dioxopiperidin-3-yl)-1,3-dioxoisoindolin-5-yl)pyrrolidin-3-yl)methyl)piperidin-4-yl)phenyl)amino)-6-(piperidin-1-yl) nicotinamide]
Cc1nc(C(N)=O)c(Nc2ccc(C3CCN(CC4CCN(c5ccc6c(c5)C(=O)N(C5CCC(=O)NC5=O)C6=O)C4)CC3)cc2)nc1N1CCCCC1 (stereo not drawn) [Compound 039, 3-((4-(1-((1-(2-(2,6-dioxopiperidin-3-yl)-1,3-dioxoisoindolin-5-yl)pyrrolidin-3-yl)methyl)piperidin-4-yl)phenyl)amino)-6-methyl-5-(piperidin-1-yl) pyrazine-2-carboxamide]
NC(=O)c1nnc(N2CCCCC2)cc1Nc1ccc(C2CCN(CC3CCN(c4ccc5c(c4)C(=O)N(C4CCC(=O)NC4=O)C5=O)C3)CC2)cc1 (stereo not drawn) [Compound 040, 4-((4-(1-((1-(2-(2,6-dioxopiperidin-3-yl)-1,3-dioxoisoindolin-5-yl)pyrrolidin-3-yl)methyl)piperidin-4-yl)phenyl)amino)-6-(piperidin-1-yl) pyridazine-3-carboxamide]
NC(=O)c1nnc(N2CCC[C@@H](O)C2)cc1Nc1ccc(C2CCN(CC3CCN(c4ccc5c(c4)C(=O)N(C4CCC(=O)NC4=O)C5=O)C3)CC2)cc1 (stereo partly drawn) [Compound 041, 4-((4-(1-((1-(2-(2,6-dioxopiperidin-3-yl)-1,3-dioxoisoindolin-5-yl)pyrrolidin-3-yl)methyl)piperidin-4-yl)phenyl)amino)-6-((R)-3-hydroxypiperidin-1-yl) pyridazine-3-carboxamide]
NC(=O)c1nc(F)c(N2CCCCC2)nc1Nc1ccc(C2CCN(CC3CCN(c4ccc5c(c4)C(=O)N(C4CCC(=O)NC4=O)C5=O)C3)CC2)cc1 (stereo not drawn) [Compound 042, 3-((4-(1-((1-(2-(2,6-dioxopiperidin-3-yl)-1,3-dioxoisoindolin-5-yl)pyrrolidin-3-yl)methyl)piperidin-4-yl)phenyl)amino)-6-fluoro-5-(piperidin-1-yl) pyrazine-2-carboxamide]
COc1nc(C(N)=O)c(Nc2ccc(C3CCN(CC4CCN(c5ccc6c(c5)C(=O)N(C5CCC(=O)NC5=O)C6=O)C4)CC3)cc2)nc1N1CCCCC1 (stereo not drawn) [Compound 043, 3-((4-(1-((1-(2-(2,6-dioxopiperidin-3-yl)-1,3-dioxoisoindolin-5-yl)pyrrolidin-3-yl)methyl)piperidin-4-yl)phenyl)amino)-6-methoxy-5-(piperidin-1-yl) pyrazine-2-carboxamide]
CN1CCN(c2nnc(C(N)=O)c(Nc3ccc(N4CCC(CN5CCN(c6ccc(N7CCC(=O)NC7=O)cc6)CC5)CC4)nc3)n2)CC1 [Compound 047, 5-((6-(4-((4-(4-(2,4-dioxotetrahydropyrimidin-1(2H)-yl)phenyl)piperazin-1-yl)methyl)piperidin-1-yl)pyridin-3-yl)amino)-3-(4-methylpiperazin-1-yl)-1,2,4-triazine-6-carboxamide]
NC(=O)c1nnc(N2CCCCC2)nc1Nc1ccc(N2CC(CN3CCN(c4ccc5c(c4)C(=O)N(C4CCC(=O)NC4=O)C5=O)CC3)C2)cc1 (stereo not drawn) [Compound 049, 5-((4-(3-((4-(2-(2,6-dioxopiperidin-3-yl)-1,3-dioxoisoindolin-5-yl)piperazin-1-yl)methyl)azetidin-1-yl)phenyl)amino)-3-(piperidin-1-yl)-1,2,4-triazine-6-carboxamide]
CN1CCN(c2nnc(C(N)=O)c(Nc3ccc(N4CCC(CN5CCN(c6ccc(N7CCC(=O)NC7=O)cc6)CC5)CC4)c(F)c3)n2)CC1 [Compound 054, 5-((4-(4-((4-(4-(2,4-dioxotetrahydropyrimidin-1(2H)-yl)phenyl)piperazin-1-yl)methyl)piperidin-1-yl)-3-fluorophenyl)amino)-3-(4-methylpiperazin-1-yl)-1,2,4-triazine-6-carboxamide]
NC(=O)c1nnc(N2CCCCC2)nc1Nc1ccc(C2CCN(C(=O)C3CCN(c4ccc5c(c4)C(=O)N(C4CCC(=O)NC4=O)C5=O)C3)CC2)cc1 (stereo not drawn) [Compound 055, 5-((4-(1-(1-(2-(2,6-dioxopiperidin-3-yl)-1,3-dioxoisoindolin-5-yl)pyrrolidine-3-carbonyl)piperidin-4-yl)phenyl)amino)-3-(piperidin-1-yl)-1,2,4-triazine-6-carboxamide]
NC(=O)c1nnc(N2CCCCC2)nc1Nc1ccc(N2CCN(C(=O)C3CCN(c4ccc5c(c4)C(=O)N(C4CCC(=O)NC4=O)C5=O)C3)CC2)cc1 (stereo not drawn) [Compound 056, 5-((4-(4-(1-(2-(2,6-dioxopiperidin-3-yl)-1,3-dioxoisoindolin-5-yl)pyrrolidine-3-carbonyl)piperazin-1-yl)phenyl)amino)-3-(piperidin-1-yl)-1,2,4-triazine-6-carboxamide]
NC(=O)c1nnc(N2CCCCC2)nc1Nc1ccc(C2CCN(C(=O)C3CCN(c4ccc5c(c4)C(=O)N(C4CCC(=O)NC4=O)C5=O)CC3)CC2)cc1 (stereo not drawn) [Compound 057, 5-((4-(1-(1-(2-(2,6-dioxopiperidin-3-yl)-1,3-dioxoisoindolin-5-yl)piperidine-4-carbonyl)piperidin-4-yl)phenyl)amino)-3-(piperidin-1-yl)-1,2,4-triazine-6-carboxamide]
NC(=O)c1nnc(N2CCCCC2)nc1Nc1ccc(N2CCN(C(=O)C3CCN(c4ccc5c(c4)C(=O)N(C4CCC(=O)NC4=O)C5=O)CC3)CC2)cc1 (stereo not drawn) [Compound 058, 5-((4-(4-(1-(2-(2,6-dioxopiperidin-3-yl)-1,3-dioxoisoindolin-5-yl)piperidine-4-carbonyl)piperazin-1-yl)phenyl)amino)-3-(piperidin-1-yl)-1,2,4-triazine-6-carboxamide]
NC(=O)c1nnc(N2CCCCC2)nc1Nc1ccc(N2CCC(C(=O)N3CCN(c4ccc5c(c4)C(=O)N(C4CCC(=O)NC4=O)C5=O)CC3)CC2)cc1 (stereo not drawn) [Compound 060, 5-((4-(4-(4-(2-(2,6-dioxopiperidin-3-yl)-1,3-dioxoisoindolin-5-yl)piperazine-1-carbonyl)piperidin-1-yl)phenyl)amino)-3-(piperidin-1-yl)-1,2,4-triazine-6-carboxamide]
NC(=O)c1nnc(N2CCCCC2)nc1Nc1ccc(N2CCN(C(=O)C3CN(c4ccc5c(c4)C(=O)N(C4CCC(=O)NC4=O)C5=O)C3)CC2)cc1 (stereo not drawn) [Compound 061, 5-((4-(4-(1-(2-(2,6-dioxopiperidin-3-yl)-1,3-dioxoisoindolin-5-yl)azetidine-3-carbonyl)piperazin-1-yl)phenyl)amino)-3-(piperidin-1-yl)-1,2,4-triazine-6-carboxamide]
CC(C)(C)C(=O)OCN1C(=O)CCC(N2C(=O)c3ccc(N4CCC(CN5CCC(c6ccc(Nc7nc(N8CCCCC8)nnc7C(N)=O)cc6)CC5)C4)cc3C2=O)C1=O (stereo not drawn) [Compound 062, (3-(5-(3-((4-(4-((6-carbamoyl-3-(piperidin-1-yl)-1,2,4-triazin-5-yl)amino)phenyl)piperidin-1-yl)methyl)pyrrolidin-1-yl)-1,3-dioxoisoindolin-2-yl)-2,6-dioxopiperidin-1-yl) methyl pivalate]
CN1CCN(c2nnc(C(N)=O)c(Nc3ccc(C4CCN(CC5CCN(c6ccc7c(c6)C(=O)N(C6CCC(=O)N(COC(=O)C(C)(C)C)C6=O)C7=O)C5)CC4)cc3)n2)CC1 (stereo not drawn) [Compound 063, (3-(5-(3-((4-(4-((6-carbamoyl-3-(4-methylpiperazin-1-yl)-1,2,4-triazin-5-yl)amino)phenyl)piperidin-1-yl)methyl)pyrrolidin-1-yl)-1,3-dioxoisoindolin-2-yl)-2,6-dioxopiperidin-1-yl) methyl pivalate]
CC(C)(C)C(=O)OCN1C(=O)CCC(N2C(=O)c3ccc(N4CCC(CN5CCN(c6ccc(Nc7nc(N8CCCCC8)nnc7C(N)=O)cc6F)CC5)C4)cc3C2=O)C1=O (stereo not drawn) [Compound 064, (3-(5-(3-((4-(4-((6-carbamoyl-3-(piperidin-1-yl)-1,2,4-triazin-5-yl)amino)-2-fluorophenyl)piperazin-1-yl)methyl)pyrrolidin-1-yl)-1,3-dioxoisoindolin-2-yl)-2,6-dioxopiperidin-1-yl) methyl pivalate]
CC(C)(C)C(=O)OCN1C(=O)CCN(c2ccc(N3CCN(CC4CCN(c5ccc(Nc6nc(N7CCCCC7)nnc6C(N)=O)cc5F)CC4)CC3)cc2)C1=O [Compound 066, (3-(4-(4-((1-(4-((6-carbamoyl-3-(piperidin-1-yl)-1,2,4-triazin-5-yl)amino)-2-fluorophenyl)piperidin-4-yl)methyl)piperazin-1-yl)phenyl)-2,6-dioxotetrahydropyrimidin-1(2H)-yl) methyl pivalate]
